The results in this text go back to US20130165368A1, “ANTIMICROBIAL COMPOUNDS” (priority 2010, published 2013).

Each structure is given as a SMILES string. In brackets after ≈: the same amount, converted by molar mass. Like-named read-outs stand apart in the source and are kept apart here.

As a reminder, the MIC is the least concentration at which growth counts as inhibited.

Assay type in all cases: cell-based
For assay [1], the system named is MRSA FRA 920. Put plainly: MIC agar dilution, MRSA strain 38. As to conditions: Staphylococcus aureus. The procedure:
(§1) Molar equivalent concentrations were used to allow comparison between compounds of differing molecular mass. Due to weighing difficulties, any compound in solid form was melted in a water bath prior to dilution. To make ten-times strength concentrations, which takes into account agar dilution, 0.0352 mmol of each compound was weighed into plastic universal bottles and 4 mL of sterile distilled water (SDW) was added. To produce a homogenous emulsion the universals were vortexed; once achieved the emulsions were serial diluted by adding 2 mL to 2 mL of SDW.
(§2) For every 100 mL of Isosensitest agar (IST) (CM0471; Oxoid, Basingstoke, England), 3.1 g of the IST powder was added to 100 mL SDW (as per manufacturer's instructions) and sterilised for 15 minutes at 121° C. Once sterilised, the molten agar was cooled to 50° C. in a water-bath. Subsequently 4.8 g of CCEY powder (BC2160; Bioconnections, Wetherby, England), also known as Brazier's medium, was added to 100 mL SDW for every 100 mL of agar needed. This was then sterilised for 15 minutes at 121° C. Once sterilised the molten agar was cooled to 50° C. in a water-bath and 4 mL of egg-yolk emulsion (S2073; TCS Biosciences Ltd, Buckingham, United Kingdom) and 1 mL of lysed defibrinated horse blood (HB035; TCS Biosciences Ltd, Buckingham, United Kingdom) were also added for every 100 mL needed. Horse blood lysis is achieved by dilution to half concentration with SDW; when fully lysed the mixture will turn dark red in colour.
(§3) 18 mL agar was added to each universal and then poured into sterile Petri dishes. This step creates a 1/10 dilution resulting in agar plates of the required strength. Control plates for each set of strains were created by adding 18 mL of agar to 2 mL of SDW.
(§4) Suspensions of each bacterial species were prepared with a density equal to that of a 0.5 McFarland standard using a densitometer. All suspensions were made using sterile distilled water and fresh 18-20 hour cultures. As a 0.5 McFarland standard contains 1.5×10^8 CFU/mL and the multipoint inoculators applies 1 μL spots of liquid, each bacterial suspension was diluted 1/15 (20 μL suspension to 280 μL sterile distilled water).
(§5) Bacterial suspensions were prepared from fresh 18-24 hour cultures as previously described. 1 μL of each strain was inoculated onto all 100 agar plates containing a different chemical concentration and the 2 control plates. This was done using a multipoint inoculator which inoculates 20 strains per plate. All plates were incubated for 22 hours at 37° C. in aerobic conditions.
(§6) Each plate was examined for bacterial growth after 22 and 48 hours, with each being incubated in between examinations. A positive result was recorded as growth of ≧10 colonies. A negative result was recorded as growth of <10 colonies as this is equivalent to 99.9% inhibition. The lowest concentration of chemical that inhibited growth was recorded as the MIC. The results are recorded in Table IV below, where the numbers are quoted in mmol/L.
(§7) Given the positive performance of the ethoxylates of lauryl alcohol in reducing the MIC for a number of the micro-organisms tested, further MIC testing of Laureth-1 [C12E1] through to Laureth-8 [C12E8] was conducted on each of the following: • 10 strains of vancomycin-resistant enterococci (VRE)—listed in Table V below; and • 20 strains of methicillin-resistant Staphylococcus aureus (MRSA)—listed in Table VI.
(§8) The alkanol, alkanol derivatives, agar plates, and inocula were all prepared in the same way as described above.
(§9) The plates were examined in the same manner as described above and the results are recorded in Table VII below, where the numbers are quoted in mmol/L.
A general note: In agar dilution, organisms are placed on agar that contains the substance at set levels.

Assay [2] relates to vancomycin-resistant enterococci (VRE). Nature of the assay: MIC agar dilution, summary over 10 VRE strains. As to conditions: Enterococcus; most, if not all, of the VRE samples. Here is the method: as §7, §8, §9
Assay [3] relates to Enterococcus faecalis (VRE) MB 726. Put plainly: MIC agar dilution, VRE strain 28. Here is the method:
as §1, §2, §3, §4, §5, §6, §7, §8, §9

Assay [4] has as its system Enterococcus faecium (VRE) MB 305. Nature of the assay: MIC agar dilution, VRE strain 25. The procedure:
as §1, §2, §3, §4, §5, §6, §7, §8, §9

For assay [5], the system named is Listeria monocytogenes. Put plainly: MIC agar dilution, micro-organism 15 (11994). Particulars: Listeria monocytogenes 11994, read-out: MIC. Summed up: (§10)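 Twofold dilutions of compound emulsions in water were set in Isosensitest agar with Brazier's CCEY medium, egg yolk and lysed horse blood. Spots of 1 µL from 0.5 McFarland suspensions diluted 1/15 were incubated aerobically at 37 °C and read at 22 and 48 h. MIC (mmol/L) was the lowest concentration giving <10 colonies.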

Assay [6] deals with Enterococcus faecalis. Put plainly: MIC agar dilution, micro-organism 17 (775). Particulars: Enterococcus faecalis 775, read-out: MIC. The method, boiled down: as §10
For assay [7], the system named is MRSA EMRSA 16 00036/95. Put plainly: MIC agar dilution, MRSA strain 46. As to conditions: Staphylococcus aureus. Here is the method:
as §1, §2, §3, §4, §5, §6, §7, §8, §9

For assay [8], the system named is MRSA FIN 54511 (E6). Nature of the assay: MIC agar dilution, MRSA strain 32. Particulars: Staphylococcus aureus. The procedure: as §1, §2, §3, §4, §5, §6, §7, §8, §9

Consider `CCCCCCCCCCCCOCCO` [L1, Ethylene Glycol Monododecyl Ether], for which the MIC in assay [1] (22 hrs) was 220 µM (≈ 50.7 µg/mL); in assay [1] (48 hrs), 220 µM (≈ 50.7 µg/mL); in assay [2] it was no more than 440 µM; in assay [3] (22 hrs) it was 440 µM (≈ 101 µg/mL); in assay [3] (48 hrs) it was 440 µM (≈ 101 µg/mL); in assay [4] (22 hrs), 440 µM (≈ 101 µg/mL). Further, the MIC in assay [4] (48 hrs) came to 880 µM (≈ 203 µg/mL); in assay [5] (22 hrs), 440 µM (≈ 101 µg/mL); in assay [5] (48 hrs) it was 880 µM (≈ 203 µg/mL); in assay [6] (22 hrs), 440 µM (≈ 101 µg/mL); in assay [6] (48 hrs), 440 µM (≈ 101 µg/mL); in assay [7] (22 hrs), 220 µM (≈ 50.7 µg/mL). For the same compound, the MIC in assay [7] (48 hrs), in assay [8] (22 hrs) and in assay [8] (48 hrs) was 220 µM (≈ 50.7 µg/mL) in each case.

Turning to `CCCCCCCCCCCCOCCOCCOCCO` [L3, Triethylene Glycol Monododecyl Ether], the MIC in assay [1] (22 hrs) is 55 µM (≈ 17.5 µg/mL); in assay [1] (48 hrs) it was 55 µM (≈ 17.5 µg/mL); in assay [2] it was no more than 440 µM; in assay [3] (22 hrs), 220 µM (≈ 70.1 µg/mL); in assay [3] (48 hrs), 220 µM (≈ 70.1 µg/mL); in assay [4] (22 hrs) it was 440 µM (≈ 140 µg/mL). Also, the MIC is 440 µM (≈ 140 µg/mL) in assay [4] (48 hrs); 110 µM (≈ 35 µg/mL) in assay [5] (22 hrs); 220 µM (≈ 70.1 µg/mL) in assay [5] (48 hrs); 110 µM (≈ 35 µg/mL) in assay [6] (22 hrs); 110 µM (≈ 35 µg/mL) in assay [6] (48 hrs); 55 µM (≈ 17.5 µg/mL) in assay [7] (22 hrs). Besides, the minimum inhibitory concentration (MIC) amounted to 55 µM (≈ 17.5 µg/mL) in assay [7] (48 hrs), 220 µM (≈ 70.1 µg/mL) in assay [8] (22 hrs) and 220 µM (≈ 70.1 µg/mL) in assay [8] (48 hrs).

Take `CCCCCCCCCCCCOCCOCCOCCOCCOCCOCCO` [L6, Hexaethylene Glycol Monododecyl Ether]: the MIC in assay [1] (22 hrs) is 220 µM (≈ 99.1 µg/mL); in assay [1] (48 hrs) it was 220 µM (≈ 99.1 µg/mL); in assay [3] (22 hrs), greater than 880 µM; in assay [3] (48 hrs), greater than 880 µM; in assay [4] (22 hrs), 220 µM (≈ 99.1 µg/mL); in assay [4] (48 hrs), 220 µM (≈ 99.1 µg/mL). Moreover, the minimum inhibitory concentration (MIC) stood at 110 µM (≈ 49.6 µg/mL) in assay [5] (22 hrs); 110 µM (≈ 49.6 µg/mL) in assay [5] (48 hrs); 110 µM (≈ 49.6 µg/mL) in assay [6] (22 hrs); 110 µM (≈ 49.6 µg/mL) in assay [6] (48 hrs); 220 µM (≈ 99.1 µg/mL) in assay [7] (22 hrs); 440 µM (≈ 198 µg/mL) in assay [7] (48 hrs). For the same compound, the MIC in assay [8] (22 hrs) and in assay [8] (48 hrs) was 110 µM (≈ 49.6 µg/mL) each time.

Consider `CCCCCCCCCCCCOCCOCCO` [L2, Diethylene Glycol Monododecyl Ether], for which the MIC in assay [1] (22 hrs) was 110 µM (≈ 30.2 µg/mL); in assay [1] (48 hrs), 110 µM (≈ 30.2 µg/mL); in assay [2], no more than 440 µM; in assay [3] (22 hrs), 220 µM (≈ 60.4 µg/mL); in assay [3] (48 hrs), 220 µM (≈ 60.4 µg/mL); in assay [4] (22 hrs), 880 µM (≈ 242 µg/mL). In addition, the MIC in assay [4] (48 hrs) was found to be 880 µM (≈ 242 µg/mL); in assay [5] (22 hrs), 220 µM (≈ 60.4 µg/mL); in assay [5] (48 hrs), 220 µM (≈ 60.4 µg/mL); in assay [6] (22 hrs), 220 µM (≈ 60.4 µg/mL); in assay [6] (48 hrs), 220 µM (≈ 60.4 µg/mL); in assay [7] (22 hrs), 110 µM (≈ 30.2 µg/mL). The MIC in assay [7] (48 hrs), in assay [8] (22 hrs) and in assay [8] (48 hrs) was 110 µM (≈ 30.2 µg/mL) throughout.
